Reference: the SangsterLogP compilation

Structure (SMILES)	logP
COC(=O)CSC1c2cccc(O)c2C(=O)c2c(O)cccc21	3.53
O=C1c2c(O)cccc2C(SCc2ccccc2)c2cccc(O)c21	4.87
COc1ccc(CSC2c3cccc(O)c3C(=O)c3c(O)cccc32)cc1	4.83
O=C1c2c(O)cccc2C(Sc2ccccc2O)c2cccc(O)c21	3.92
CCOC(=O)CSC1c2cccc(O)c2C(=O)c2c(O)cccc21	4.45
O=C1c2c(O)cccc2C(Sc2ccc(O)cc2)c2cccc(O)c21	3.69
O=C(O)CSC1c2cccc(O)c2C(=O)c2c(O)cccc21	2.35
O=C1c2c(O)cccc2C(SCC(O)CO)c2cccc(O)c21 (stereo not given)	2.73
Nc1ccccc1SC1c2cccc(O)c2C(=O)c2c(O)cccc21	4.05
O=C1c2c(O)cccc2C(Sc2ccccc2)c2cccc(O)c21	4.54
Nc1ccc(SC2c3cccc(O)c3C(=O)c3c(O)cccc32)cc1	3.65
COc1cccc(SC2c3cccc(O)c3C(=O)c3c(O)cccc32)c1	4.5
CCCCOC(=O)CSC1c2cccc(O)c2C(=O)c2c(O)cccc21	4.41
O=C1c2c(O)cccc2C(SCCO)c2cccc(O)c21	3.16
CC(SC1c2cccc(O)c2C(=O)c2c(O)cccc21)C(=O)O (stereo not given)	2.77
O=C1c2c(O)cccc2C(SCCCS)c2cccc(O)c21	4.33
CCCSC1c2cccc(O)c2C(=O)c2c(O)cccc21	4.57
O=C1c2c(O)cccc2C(SCCc2ccccc2)c2cccc(O)c21	4.97
COc1ccc(SC2c3cccc(O)c3C(=O)c3c(O)cccc32)cc1	4.51
COc1ccccc1SC1c2cccc(O)c2C(=O)c2c(O)cccc21	4.42
CCSC1c2cccc(O)c2C(=O)c2c(O)cccc21	2.97
CCOC(=O)CCSC1c2cccc(O)c2C(=O)c2c(O)cccc21	4.59
CCCCOC(=O)CCSC1c2cccc(O)c2C(=O)c2c(O)cccc21	4.55
O=C1c2c(O)cccc2C(SCCCc2ccccc2)c2cccc(O)c21	4.78
O=C(O)CCSC1c2cccc(O)c2C(=O)c2c(O)cccc21	3
